pIC50: −log10 of the molar value.
Legend:
[1] = system: WT-HepG2 cells; experiment: Propranolol metabolite formation in WT-HepG2 cells (HPLC); type: in vitro ADME, human; conditions: 1 μM propranolol, 360 min
Excerpt: Figure 5 Major metabolites of propranolol formed by the CYPs–UGT1A1 KI-HepG2 cells. […] Data are means ± SD of three technical replicates. N.D., not detected.

[2] = system: CYPs–UGT1A1 KI-HepG2 cells
Experimental: The HepG2 cells were seeded in 96-well plates at 1.0 × 10^4 cells/well. […] After 24 h, to examine the cell viability, we performed a WST-8 (2-(2-methoxy-4-nitrophenyl)-3-(4-nitrophenyl)-5-(2,4-disulfophenyl)-2H-tetrazolium, monosodium salt) assay by using Cell Count Reagent SF according to the manufacturer’s instructions. The cell viability was calculated as the percentage of that in the cells treated with a vehicle only.
After 24 h, cell viability was examined by WST-8 assay. The cell viability was calculated as a percentage of the number of cells after treatment with a solvent only. The results shown are means ± SD of three technical replicates.

[3] = system: CYPs–UGT1A1 KI-HepG2 cells; experiment: Propranolol metabolite formation in CYPs–UGT1A1 KI-HepG2 cells (HPLC); type: in vitro ADME, human; conditions: 1 μM propranolol, 360 min
[4] = target: CYP2C9 (Homo sapiens, UniProt P11712)
Experimental: (§1) The cells were cultured on 48-well plates, then washed with pH 7.4 HBSS containing 10 mM HEPES and 25 mM glucose. […] After preincubation, HBSS containing 10 μM phenacetin, 10 μM diclofenac, 50 μM S-mephenytoin, 1 μM bufuralol, 10 μM midazolam, 10 μM 7′-hydroxy coumarin, or 1 μM propranolol was added, and the cells were incubated at 37 ℃ for 360 min. […] The samples were collected from the supernatant, then immediately mixed with the same volume of acetonitrile. The mixed solutions were centrifuged for 5 min at 15,000× g. […] HPLC analysis was performed using a LO-20AD SPD + RF (DGU-20A, LC-20AD, RF-20A xs, SIL-20AC, CBM-20A, SPD-20A, CTO-20AC; Shimadzu). The concentrations of each metabolite were calculated according to the respective standard followed by normalization to the protein content per well.
(§2) A value of p < 0.05 was considered statistically significant. Using the SigmaPlot v.
(§3) The quantity of metabolites (4′-hydroxy diclofenac, 1′-hydroxy bufuralol, and 1′-hydroxy midazolam; these compounds are metabolites for CYP2C9, 2D6, and 3A4, respectively) were measured by HPLC. Data represent the means ± SD (n = 3, technical replicates). Statistical analyses were performed using the unpaired two-tailed Student’s t test (** p < 0.01). […]

[5] = target: T1, CYP2D6 (Homo sapiens, UniProt P10635); experiment: CYP2D6 inhibition in CYPs–UGT1A1 KI-HepG2 cells (1′-hydroxy bufuralol formation, HPLC); type: in vitro ADME
T1 construct: P2A self-cleaving peptide (upstream linker from CYP2C9) (N); T2A self-cleaving peptide (linker to HygR) (C); expressed in transfected cells
Experimental: as §1, §2, §3

T1 sequence (P10635 whole entry): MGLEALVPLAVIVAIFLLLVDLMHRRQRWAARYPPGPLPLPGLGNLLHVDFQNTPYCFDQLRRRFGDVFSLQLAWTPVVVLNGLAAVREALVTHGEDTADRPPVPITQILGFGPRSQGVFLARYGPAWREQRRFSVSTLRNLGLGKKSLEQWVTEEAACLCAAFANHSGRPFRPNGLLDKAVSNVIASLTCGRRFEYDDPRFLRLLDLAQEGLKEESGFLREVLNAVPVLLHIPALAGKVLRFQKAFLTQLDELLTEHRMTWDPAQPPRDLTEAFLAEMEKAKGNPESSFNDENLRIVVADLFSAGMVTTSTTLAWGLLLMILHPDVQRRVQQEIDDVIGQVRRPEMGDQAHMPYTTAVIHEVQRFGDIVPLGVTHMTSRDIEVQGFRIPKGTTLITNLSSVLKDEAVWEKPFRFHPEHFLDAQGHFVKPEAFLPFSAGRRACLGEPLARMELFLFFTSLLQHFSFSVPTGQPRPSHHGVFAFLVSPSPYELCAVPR
Sequence of CYP2C9 (P11712 whole entry): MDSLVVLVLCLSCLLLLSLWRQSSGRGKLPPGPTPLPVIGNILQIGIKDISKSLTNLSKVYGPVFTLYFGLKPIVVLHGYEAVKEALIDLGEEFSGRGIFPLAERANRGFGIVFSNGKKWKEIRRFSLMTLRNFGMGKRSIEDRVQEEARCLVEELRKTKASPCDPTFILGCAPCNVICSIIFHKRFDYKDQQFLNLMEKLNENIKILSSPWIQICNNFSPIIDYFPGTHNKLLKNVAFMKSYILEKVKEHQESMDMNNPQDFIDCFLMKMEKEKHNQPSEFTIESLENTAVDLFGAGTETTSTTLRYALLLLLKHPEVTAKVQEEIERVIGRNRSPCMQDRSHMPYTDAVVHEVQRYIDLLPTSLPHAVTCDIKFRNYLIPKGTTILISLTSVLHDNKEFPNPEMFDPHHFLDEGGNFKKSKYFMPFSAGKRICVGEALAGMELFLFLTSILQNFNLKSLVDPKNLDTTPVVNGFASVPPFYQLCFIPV

Metabolite of propranolol formed (detection by HPLC) [1]	SMILES	Cell viability of CYPs–UGT1A1 KI-HepG2 cells compared with WT-HepG2 cells [2]	other results
undetectable	CC(C)NCC(O)COc1ccc(O)c2ccccc12 (centres unmarked) [4′-hydroxy propranolol]		
undetectable	CC(C)NCC(O)COc1cccc2c(O)cccc12 (centres unmarked) [5′-hydroxy propranolol]		
	CC(=O)Nc1ccc(O)cc1 [acetaminophen]	lower	
	CCc1oc2ccccc2c1C(=O)c1cc(Br)c(O)c(Br)c1 [benzbromarone]	lower	
undetectable	NCC(O)COc1cccc2ccccc12 (centres unmarked) [desisopropylpropranolol]		Metabolite of propranolol formed (detection by HPLC) [3]: present at detectable levels
	CN(C)CCCN1c2ccccc2CCc2ccccc21 [imipramine]	lower	
	Nc1ccc(S(=O)(=O)Nc2ccnn2-c2ccccc2)cc1 [sulfaphenazole]		CYP2C9 activity in the presence of the inhibitor [4]: significantly decreased
	CN(C/C=C/C#CC(C)(C)C)Cc1cccc2ccccc12 [terbinafine]		CYP2D6 activity in the presence of the inhibitor ([5]; 10 μM inhibitor, 1 μM bufuralol, p < 0.01): significantly decreased; pIC50 ([5]; substrate 1 μM bufuralol, inhibitor 0.03-10 μM, 30 min preincubation, 360 min incubation): 7.20
	Cc1c(C)c2c(c(C)c1O)CCC(C)(COc1ccc(CC3SC(=O)NC3=O)cc1)O2 (centres unmarked) [troglitazone]	lower	

From article PMC9140068, “Generation of HepG2 Cells with High Expression of Multiple Drug-Metabolizing Enzymes for Drug Discovery Research Using a PITCh System” (Cells, 2022)
